Reference: paper PMC8665364, “Phosphoinositide regulates dynamic movement of the S4 voltage sensor in the second repeat in two-pore channel 3” (The Journal of Biological Chemistry, 2021)
Residue numbers refer to the chain shown, from its start.

Experiments:
[1] = biological target: T1, XtTPC3 (TPC3 from Xenopus tropicalis) (Xenopus tropicalis, UniProt A0A6I8S6D1, R187Q/D511C); experiment: two-electrode voltage clamp, Cys-accessibility (activation rate); assay type: cell-based; conditions: covalent at introduced Cys511; 0.5 mM MTSES in ND-96, pH 7.4, room temperature; +135 mV pulses; PI(3,4)P2 present (after long depolarization); Xenopus oocytes
T1 construct: gene LOC100495031; full-length cDNA in pGEMHE, Xenopus laevis oocytes (cRNA); pCXN2 in HEK293T for gating charges; homodimer
T1 sequence (A0A6I8S6D1 1-779 R187Q/D511C): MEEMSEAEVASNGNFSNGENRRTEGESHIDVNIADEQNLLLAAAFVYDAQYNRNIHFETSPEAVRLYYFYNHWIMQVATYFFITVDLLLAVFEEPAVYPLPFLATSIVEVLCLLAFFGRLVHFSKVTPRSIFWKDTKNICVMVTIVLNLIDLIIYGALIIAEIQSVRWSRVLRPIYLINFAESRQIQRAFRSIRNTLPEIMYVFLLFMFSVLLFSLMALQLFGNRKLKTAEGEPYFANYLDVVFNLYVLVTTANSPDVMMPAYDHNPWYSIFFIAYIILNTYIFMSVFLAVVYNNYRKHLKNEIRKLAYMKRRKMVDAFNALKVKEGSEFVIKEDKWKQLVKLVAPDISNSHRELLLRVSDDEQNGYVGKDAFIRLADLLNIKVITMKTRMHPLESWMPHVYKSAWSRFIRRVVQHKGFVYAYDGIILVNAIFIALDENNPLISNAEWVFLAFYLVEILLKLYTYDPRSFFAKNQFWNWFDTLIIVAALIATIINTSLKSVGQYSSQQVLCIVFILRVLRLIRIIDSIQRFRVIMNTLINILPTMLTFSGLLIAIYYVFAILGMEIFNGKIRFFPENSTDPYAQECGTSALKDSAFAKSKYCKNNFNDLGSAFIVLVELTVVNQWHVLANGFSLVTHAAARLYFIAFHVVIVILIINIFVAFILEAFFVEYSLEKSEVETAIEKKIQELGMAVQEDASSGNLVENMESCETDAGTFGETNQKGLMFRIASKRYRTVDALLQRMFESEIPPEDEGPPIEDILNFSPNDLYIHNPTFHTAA

[2] = biological target: T2, XtTPC3 (TPC3 from Xenopus tropicalis) (Xenopus tropicalis, UniProt A0A6I8S6D1, D511C); experiment: as above; assay type: cell-based; conditions: covalent at introduced Cys511; 0.5 mM MTSES in ND-96, pH 7.4, room temperature; +135 mV pulses; PI(3,4)P2 present (after long depolarization); Xenopus oocytes
T2 construct: gene LOC100495031; full-length cDNA in pGEMHE, Xenopus laevis oocytes (cRNA); pCXN2 in HEK293T for gating charges; homodimer
T2 sequence (A0A6I8S6D1 1-779 D511C): T1 sequence (A0A6I8S6D1 1-779 R187Q/D511C) with Q187R

MTSES-modification rate [1]: 0.011 ± 0.005 s⁻¹
MTSES-modification rate [2]: 0.043 ± 0.014 s⁻¹
Compound: CS(=O)(=O)SCCS(=O)(=O)O [MTSES]
